Data taken from PubChem BioAssay (NCI).
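Interpolation was linear, between the two tested concentrations surrounding the appropriate level; five concentrations were tested over 48 hours in 96-well plates. At the GI50, growth is halved. TGI: total growth inhibition.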

Key:
Experiment in all cases: inhibition of tumour cell growth, NCI panel, 48 h
NCI-H460 lung = tested on: NCI-H460 lung
SW-620 colon = tested on: SW-620 colon
SNB-19 CNS = tested on: SNB-19 CNS
SN12C renal = tested on: SN12C renal
MALME-3M melanoma = tested on: MALME-3M melanoma
SF-539 CNS = tested on: SF-539 CNS
TK-10 renal = tested on: TK-10 renal
PC-3 prostate = tested on: PC-3 prostate
RPMI-8226 leukemia = tested on: RPMI-8226 leukemia
OVCAR-3 ovarian = tested on: OVCAR-3 ovarian
HT29 colon = tested on: HT29 colon
HOP-92 NSCLC = tested on: HOP-92 NSCLC
MCF7 breast = tested on: MCF7 breast
SF-295 CNS = tested on: SF-295 CNS
A549 NSCLC = tested on: A549 NSCLC
U251 CNS = tested on: U251 CNS
M14 melanoma = tested on: M14 melanoma
T-47D breast = tested on: T-47D breast
ACHN renal = tested on: ACHN renal
A498 renal = tested on: A498 renal
K-562 leukemia = tested on: K-562 leukemia
BT-549 breast = tested on: BT-549 breast
IGROV1 ovarian = tested on: IGROV1 ovarian
KM12 colon = tested on: KM12 colon
SNB-75 CNS = tested on: SNB-75 CNS
LOX IMVI melanoma = tested on: LOX IMVI melanoma
MDA-MB-435 = tested on: MDA-MB-435
SK-MEL-28 melanoma = tested on: SK-MEL-28 melanoma
MDA-MB-468 breast = tested on: MDA-MB-468 breast
NCI-H23 lung = tested on: NCI-H23 lung
CAKI-1 renal = tested on: CAKI-1 renal
MOLT-4 leukemia = tested on: MOLT-4 leukemia
UACC-62 melanoma = tested on: UACC-62 melanoma
CCRF-CEM leukemia = tested on: CCRF-CEM leukemia
OVCAR-4 ovarian = tested on: OVCAR-4 ovarian
SK-OV-3 ovarian = tested on: SK-OV-3 ovarian
DU-145 prostate = tested on: DU-145 prostate
MDA-MB-231 breast = tested on: MDA-MB-231 breast
NCI-H522 lung = tested on: NCI-H522 lung
SK-MEL-2 melanoma = tested on: SK-MEL-2 melanoma
HCT-116 colon = tested on: HCT-116 colon
SF-268 CNS = tested on: SF-268 CNS
OVCAR-5 ovarian = tested on: OVCAR-5 ovarian
SK-MEL-5 melanoma = tested on: SK-MEL-5 melanoma
HL-60(TB) leukemia = tested on: HL-60(TB) leukemia
HCT-15 colon = tested on: HCT-15 colon
HOP-62 NSCLC = tested on: HOP-62 NSCLC
EKVX NSCLC = tested on: EKVX NSCLC
HS 578T breast = tested on: HS 578T breast
UACC-257 melanoma = tested on: UACC-257 melanoma
OVCAR-8 ovarian = tested on: OVCAR-8 ovarian
COLO 205 colon = tested on: COLO 205 colon
RXF 393 renal = tested on: RXF 393 renal
UO-31 renal = tested on: UO-31 renal
786-0 renal = tested on: 786-0 renal
NCI-H226 lung = tested on: NCI-H226 lung
HCC-2998 colon = tested on: HCC-2998 colon
SR leukemia = tested on: SR leukemia

COc1ccc(NC2=C(I)C(=O)C(C)=C(C)C2=O)cc1
GI50 (NCI-H460 lung): 15.7 µM
TGI (NCI-H460 lung): 32.8 µM
GI50 (SW-620 colon): 11.7 µM
TGI (SW-620 colon): 29.2 µM
GI50 (SNB-19 CNS): 15.4 µM
TGI (SNB-19 CNS): 34.1 µM
GI50 (SN12C renal): 4.04 µM
TGI (SN12C renal): 15.5 µM
GI50 (MALME-3M melanoma): 11.6 µM
TGI (MALME-3M melanoma): 23.9 µM
GI50 (SF-539 CNS): 2.5 µM
TGI (SF-539 CNS): 7.23 µM
GI50 (TK-10 renal): 17 µM
TGI (TK-10 renal): 37.2 µM
GI50 (PC-3 prostate): 3.42 µM
TGI (PC-3 prostate): > 100 µM
GI50 (RPMI-8226 leukemia): 3.08 µM
TGI (RPMI-8226 leukemia): 20.2 µM
GI50 (OVCAR-3 ovarian): 2.75 µM
TGI (OVCAR-3 ovarian): 9.45 µM
GI50 (HT29 colon): 18.2 µM
TGI (HT29 colon): 48.8 µM
GI50 (HOP-92 NSCLC): 7.46 µM
TGI (HOP-92 NSCLC): 26.2 µM
GI50 (MCF7 breast): 2.71 µM
TGI (MCF7 breast): 10 µM
GI50 (SF-295 CNS): 13.9 µM
TGI (SF-295 CNS): 28.4 µM
GI50 (A549 NSCLC): 16.9 µM
TGI (A549 NSCLC): 39 µM
GI50 (U251 CNS): 11.5 µM
TGI (U251 CNS): 24.7 µM
GI50 (M14 melanoma): 15 µM
TGI (M14 melanoma): 28.7 µM
GI50 (T-47D breast): 1.98 µM
TGI (T-47D breast): 16.3 µM
GI50 (ACHN renal): 4.61 µM
TGI (ACHN renal): 17.5 µM
GI50 (A498 renal): 24.6 µM
TGI (A498 renal): 68.3 µM
GI50 (K-562 leukemia): 2.99 µM
TGI (K-562 leukemia): > 100 µM
GI50 (BT-549 breast): 12.4 µM
TGI (BT-549 breast): 25.8 µM
GI50 (IGROV1 ovarian): 4.37 µM
TGI (IGROV1 ovarian): 17.3 µM
GI50 (KM12 colon): 6.96 µM
TGI (KM12 colon): 42 µM
GI50 (SNB-75 CNS): 15.9 µM
TGI (SNB-75 CNS): 35.6 µM
GI50 (LOX IMVI melanoma): 2.37 µM
TGI (LOX IMVI melanoma): 8.8 µM
GI50 (MDA-MB-435): 1.82 µM
TGI (MDA-MB-435): 3.37 µM
GI50 (SK-MEL-28 melanoma): 14.3 µM
TGI (SK-MEL-28 melanoma): 28.9 µM
GI50 (MDA-MB-468 breast): 0.416 µM
TGI (MDA-MB-468 breast): 2.49 µM
GI50 (NCI-H23 lung): 4.11 µM
TGI (NCI-H23 lung): 17.6 µM
GI50 (CAKI-1 renal): 3.89 µM
TGI (CAKI-1 renal): 22 µM
GI50 (MOLT-4 leukemia): 0.625 µM
TGI (MOLT-4 leukemia): 32.6 µM
GI50 (UACC-62 melanoma): 9.68 µM
TGI (UACC-62 melanoma): 23.8 µM
GI50 (CCRF-CEM leukemia): 1.36 µM
TGI (CCRF-CEM leukemia): 35.4 µM
GI50 (OVCAR-4 ovarian): 3.98 µM
TGI (OVCAR-4 ovarian): 15.2 µM
GI50 (SK-OV-3 ovarian): 18 µM
TGI (SK-OV-3 ovarian): 62.9 µM
GI50 (DU-145 prostate): 16.1 µM
TGI (DU-145 prostate): 30.7 µM
GI50 (MDA-MB-231 breast): 2.37 µM
TGI (MDA-MB-231 breast): 8.48 µM
GI50 (NCI-H522 lung): 6.54 µM
TGI (NCI-H522 lung): 21 µM
GI50 (SK-MEL-2 melanoma): 3.14 µM
TGI (SK-MEL-2 melanoma): 12.4 µM
GI50 (HCT-116 colon): 2.93 µM
TGI (HCT-116 colon): 10.4 µM
GI50 (SF-268 CNS): 12.3 µM
TGI (SF-268 CNS): 55.6 µM
GI50 (OVCAR-5 ovarian): 11.7 µM
TGI (OVCAR-5 ovarian): 25.6 µM
GI50 (SK-MEL-5 melanoma): 4.74 µM
TGI (SK-MEL-5 melanoma): 18.2 µM
GI50 (HL-60(TB) leukemia): 0.341 µM
TGI (HL-60(TB) leukemia): 1.54 µM
GI50 (HCT-15 colon): 13.5 µM
TGI (HCT-15 colon): 27.9 µM
GI50 (HOP-62 NSCLC): 14.9 µM
TGI (HOP-62 NSCLC): 36.6 µM
GI50 (EKVX NSCLC): 4.25 µM
TGI (EKVX NSCLC): 16.7 µM
GI50 (HS 578T breast): 14.5 µM
TGI (HS 578T breast): 50.2 µM
GI50 (UACC-257 melanoma): 2.42 µM
TGI (UACC-257 melanoma): 8 µM
GI50 (OVCAR-8 ovarian): 2.26 µM
TGI (OVCAR-8 ovarian): 6.54 µM
GI50 (COLO 205 colon): 14.8 µM
TGI (COLO 205 colon): 28 µM
GI50 (RXF 393 renal): 3.6 µM
TGI (RXF 393 renal): 14.8 µM
GI50 (UO-31 renal): 6.03 µM
TGI (UO-31 renal): 19.8 µM
GI50 (786-0 renal): 8.56 µM
TGI (786-0 renal): 27.4 µM
GI50 (NCI-H226 lung): 12.5 µM
TGI (NCI-H226 lung): 28.9 µM
GI50 (HCC-2998 colon): 16.7 µM
TGI (HCC-2998 colon): 33.5 µM
GI50 (SR leukemia): 1.07 µM
TGI (SR leukemia): > 100 µM
